Data on 10 molecules can be found in US5604211A, “Saccharide for supplementing energy to living body, and uses” (priority 1991, dated 1997).

Series [1] in a line: Digestion test in vitro, enzyme of small intestinal mucous membrane. The format is in vitro ADME. Particulars: small intestinal mucosal enzyme, Tables 1 and 2, read-out: Hydrolysis rate. As for the experimental part: (§1) In accordance with the method reported in K. Okada et al., Journal of Japanese Society of Nutrition and Food Science, Vol.43, No.1, pp.23-29 (1990), a crystalline neotrehalose specimen formulated by the method in Example A1-2 was prepared as an aqueous solution which was then tested for its digestibility in vitro: The digestibility was determined with the following equation and expressed as hydrolysis rate (%): [formula]
Similarly as above, several kinds of disaccharides were tested for their digestibility using the enzyme of the small intestinal mucous membrane.

A short description of series [2]: Utilization test in vivo, intravenous instillation to healthy volunteers (blood sugar, insulin, urine). Also noted: species or system human. Particulars: for dose excreted: urine, 50000 mg, read-out: amount of glucose in the urine. As to the method: A neotrehalose specimen prepared by the method in Example A1-2 was treated to remove pyrogens in the usual manner, and 50 g of the resultant neotrehalose specimen was in accordance with the method reported in Matsuzaki, Yakubutsu Ryoho, Vol.6, No.2, pp.65-72 (1973), formulated as a 10 w/v % aqueous solution which was then intravenously administered to 2 healthy volunteers by instillation. Their blood was sampled at prescribed time intervals and blood sugar and insulin levels were measured, along with the amount of neotrehalose secreted in their urine. As controls, glucose and maltose were used.

The conditions of series [3]: acidic conditions; cited from earlier work.
For series [4] the following is noted: prior art, Japanese patent publications; cited from earlier work.
Series [5] relates to amylases. Particulars: Japanese Patent Laid-Open No.240,758/88; cited from earlier work.
Series [6] in a line: Digestion test in vitro, salivary amylase. The format is in vitro ADME. Particulars: Table 1, read-out: Hydrolysis rate. As for the experimental part:
as §1

Series [7] in a line: Digestion test in vitro, gastric juice. Particulars: Table 1, read-out: Hydrolysis rate. It counts as in vitro ADME. As to the method:
as §1

For series [8], the system named is dd mice. Put plainly: Acute toxicity test, oral, mice. It counts as in vivo, mouse. Particulars: 7 week-old dd mice. From the text:
A crystalline neotrehalose specimen, prepared by the method in Example A1-2, was orally administered to 7 week-old dd mice as an acute toxicity test. […] Therefore, the toxicity of the tested substance appears to be extremely low.

The nature of series [9]: Utilization test in vivo, oral administration to healthy volunteers (blood sugar and insulin). Also noted: species or system human. From the text: In accordance with the method described in H. Atsuji et al., Journal of Clinical Nutrition, Vol.41, Vol.2, pp.200-208 (1972), 30 g of a neotrehalose specimen was formulated as a 20 w/v % aqueous solution which was then orally administered to 3 healthy volunteers (men) and their blood was sampled at prescribed time intervals and tested for blood sugar and insulin levels. As a control, glucose was used.

The nature of series [10]: Digestion test in vitro, amylopsin. The format is in vitro ADME. Particulars: Table 1, read-out: Hydrolysis rate. As to the method:
as §1

The conditions of series [11]: when the dose and administration method are not correctly chosen; cited from earlier work.
Where [12] appears, read: human, 50 g as 10 w/v % aqueous solution, intravenous instillation, 2 healthy volunteers.
Setting [13] is: 50 g as 10 w/v % aqueous solution, intravenous instillation, 2 healthy volunteers.
Setting [14] is: 30 g as 20 w/v % aqueous solution, oral, 3 healthy volunteers, about.

In the case of `OC[C@H]1O[C@@H](O[C@@H]2O[C@H](CO)[C@@H](O)[C@H](O)[C@H]2O)[C@H](O)[C@@H](O)[C@@H]1O` [Isotrehalose (β,β-trehalose), β,β-trehalose], the metabolised in series [1] worked out at 0.1%.
Turning to `OC[C@H]1O[C@H](O[C@H]2[C@H](O)[C@@H](O)[C@H](O)O[C@@H]2CO)[C@H](O)[C@@H](O)[C@@H]1O` [Maltose, reference compound], in series [2] (setting [12]), the dose excreted is less than 20%.
`OC[C@H]1O[C@@](CO)(O[C@H]2O[C@H](CO)[C@@H](O)[C@H](O)[C@H]2O)[C@@H](O)[C@@H]1O` [Sucrose]: in series [3], the “hydrolysis into glucose and fructose” value is recorded as “readily hydrolyzed”.
On to `OC[C@H]1O[C@H](O[C@H]2O[C@H](CO)[C@@H](O)[C@H](O)[C@H]2O)[C@H](O)[C@@H](O)[C@@H]1O` [Trehalose (α,α-trehalose), α,α-trehalose], for which, in series [4], the “metabolism and utilization in vivo” value is “not readily metabolized and absorbed by the human body”. Also, in series [1], the metabolised was determined as 0.4%. For the same molecule, in series [5], the “hydrolysis by enzymes such as amylases” value was “not readily hydrolyzed”.
Take `OC[C@H]1OC(O)[C@H](O)[C@@H](O)[C@@H]1O` (stereo partly drawn) [glucose, reference compound]: in series [2] (human, in vivo, iv), the blood sugar level result is “greatly increased” and the insulin level result is given as “greatly increased”. Moreover, the dose excreted in series [2] (setting [12]) was less than 10%.
For the molecule `OC[C@@H](O)[C@@H](O[C@@H]1O[C@H](CO)[C@H](O)[C@H](O)[C@H]1O)[C@H](O)[C@@H](O)CO` [lactitol], in series [4], the “metabolism and utilization in vivo” value is “not readily metabolized and utilized in vivo”.
For `OC[C@@H](O)[C@@H](O[C@H]1O[C@H](CO)[C@@H](O)[C@H](O)[C@H]1O)[C@H](O)[C@@H](O)CO` [maltitol], the “metabolism and utilization in vivo” value in series [4] was “not readily metabolized and utilized in vivo”.
With `OC[C@H]1O[C@@H](O[C@H]2O[C@H](CO)[C@@H](O)[C@H](O)[C@H]2O)[C@H](O)[C@@H](O)[C@@H]1O` [neotrehalose, O-α-D-glucopyranosyl β-D-glucopyranoside], the metabolised in series [6] came to 0%; in series [7], 0%; in [1] it was 43%; in series [10], 0%. Further, in series [2] (setting [13]), the blood sugar level entry is “slightly increased”. For the same molecule, the insulin level entry in [2] (setting [13]) is “did not greatly increase”. Further, the “dynamics of blood sugar and insulin compared with maltose” value in [2] (50 g intravenous, controls glucose and maltose) was “the same dynamics as maltose”. Moreover, the dose excreted in series [2] (setting [12]) was less than 20%. Besides, the toxicity entry in series [8] is recorded as “extremely low”. The “highest administered dose without animal death” value in [8] (difficult to administer a higher dose) is 5 g. For the same molecule, the animal death entry in [8] (up to 5 g) is “no animal death”. For the same molecule, in series [9] (setting [14]), the “time of maximum value of blood sugar level after oral administration” value lay within 0.5 to 1 h. The “time of maximum value of insulin level after oral administration” value in [9] (setting [14]) was in the range of 0.5 to 1 h. Further, the “behaviour of blood sugar and insulin levels compared with glucose” value in [9] (30 g oral, control glucose) is on record as “behaved similarly as glucose”.
`OC[C@@H](O)[C@@H](O)[C@H](O)[C@@H](O)CO` [sorbitol]: the diarrhea entry in series [11] was “acute diarrhea”.
On to `OC[C@@H](O)[C@H](O)[C@@H](O)CO` [xylitol], for which, in [11], the diarrhea result was “acute diarrhea”.
